Experimental data as given in PubChem BioAssay (NCI).
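Each compound was tested at five concentrations against cells in 96-well plates for 48 hours. GI50: concentration for 50% inhibition of growth. TGI denotes the concentration required for complete inhibition of growth.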

Experiments:
Experiment in all cases: growth of human tumour cells (NCI), 48 h
786-0 renal = test system: 786-0 renal
A498 renal = test system: A498 renal
A549 NSCLC = test system: A549 NSCLC
ACHN renal = test system: ACHN renal
BT-549 breast = test system: BT-549 breast
CAKI-1 renal = test system: CAKI-1 renal
CCRF-CEM leukemia = test system: CCRF-CEM leukemia
DU-145 prostate = test system: DU-145 prostate
EKVX NSCLC = test system: EKVX NSCLC
HCC-2998 colon = test system: HCC-2998 colon
HCT-116 colon = test system: HCT-116 colon
HCT-15 colon = test system: HCT-15 colon
HL-60(TB) leukemia = test system: HL-60(TB) leukemia
HOP-62 NSCLC = test system: HOP-62 NSCLC
HOP-92 NSCLC = test system: HOP-92 NSCLC
HS 578T breast = test system: HS 578T breast
HT29 colon = test system: HT29 colon
IGROV1 ovarian = test system: IGROV1 ovarian
K-562 leukemia = test system: K-562 leukemia
KM12 colon = test system: KM12 colon
LOX IMVI melanoma = test system: LOX IMVI melanoma
M14 melanoma = test system: M14 melanoma
MALME-3M melanoma = test system: MALME-3M melanoma
MCF7 breast = test system: MCF7 breast
MDA-MB-231 breast = test system: MDA-MB-231 breast
MDA-MB-435 = test system: MDA-MB-435
MOLT-4 leukemia = test system: MOLT-4 leukemia
NCI-H226 lung = test system: NCI-H226 lung
NCI-H23 lung = test system: NCI-H23 lung
NCI-H460 lung = test system: NCI-H460 lung
NCI/ADR-RES ovarian = test system: NCI/ADR-RES ovarian
OVCAR-3 ovarian = test system: OVCAR-3 ovarian
OVCAR-4 ovarian = test system: OVCAR-4 ovarian
OVCAR-5 ovarian = test system: OVCAR-5 ovarian
OVCAR-8 ovarian = test system: OVCAR-8 ovarian
PC-3 prostate = test system: PC-3 prostate
RPMI-8226 leukemia = test system: RPMI-8226 leukemia
RXF 393 renal = test system: RXF 393 renal
SF-268 CNS = test system: SF-268 CNS
SF-295 CNS = test system: SF-295 CNS
SF-539 CNS = test system: SF-539 CNS
SK-MEL-2 melanoma = test system: SK-MEL-2 melanoma
SK-MEL-28 melanoma = test system: SK-MEL-28 melanoma
SK-MEL-5 melanoma = test system: SK-MEL-5 melanoma
SK-OV-3 ovarian = test system: SK-OV-3 ovarian
SN12C renal = test system: SN12C renal
SNB-19 CNS = test system: SNB-19 CNS
SNB-75 CNS = test system: SNB-75 CNS
SW-620 colon = test system: SW-620 colon
T-47D breast = test system: T-47D breast
TK-10 renal = test system: TK-10 renal
U251 CNS = test system: U251 CNS
UACC-257 melanoma = test system: UACC-257 melanoma
UACC-62 melanoma = test system: UACC-62 melanoma
UO-31 renal = test system: UO-31 renal

IP(CCCSc1n(Cc2ccc3ccccc3c2)c(-c2ccccc2)c(-c2ccccc2)[n+]1Cc1ccc2ccccc2c1)(c1ccccc1)(c1ccccc1)c1ccccc1
GI50 (786-0 renal): 5.81 µM | TGI (786-0 renal): 40.1 µM | GI50 (A498 renal): 3.88 µM | TGI (A498 renal): 29.4 µM | GI50 (A549 NSCLC): 4.49 µM | TGI (A549 NSCLC): 36.1 µM | GI50 (ACHN renal): 20.2 µM | TGI (ACHN renal): 96.4 µM | GI50 (BT-549 breast): 2600 nM | TGI (BT-549 breast): 7.25 µM | GI50 (CAKI-1 renal): 9.96 µM | TGI (CAKI-1 renal): 31.7 µM | GI50 (CCRF-CEM leukemia): 3.11 µM | TGI (CCRF-CEM leukemia): 12 µM | GI50 (DU-145 prostate): 3.57 µM | TGI (DU-145 prostate): 23.9 µM | GI50 (EKVX NSCLC): 4.43 µM | TGI (EKVX NSCLC): 43.1 µM | GI50 (HCC-2998 colon): 3.74 µM | TGI (HCC-2998 colon): 16.3 µM | GI50 (HCT-116 colon): 2990 nM | TGI (HCT-116 colon): 10.6 µM | GI50 (HCT-15 colon): 19.6 µM | TGI (HCT-15 colon): > 100 µM | GI50 (HL-60(TB) leukemia): 1900 nM | TGI (HL-60(TB) leukemia): 3.86 µM | GI50 (HOP-62 NSCLC): 3.3 µM | TGI (HOP-62 NSCLC): 23.4 µM | GI50 (HOP-92 NSCLC): 1690 nM | TGI (HOP-92 NSCLC): 6.48 µM | GI50 (HS 578T breast): 3.04 µM | TGI (HS 578T breast): 14.1 µM | GI50 (HT29 colon): 2520 nM | TGI (HT29 colon): 7.14 µM | GI50 (IGROV1 ovarian): 2960 nM | TGI (IGROV1 ovarian): > 100 µM | GI50 (K-562 leukemia): 3.05 µM | TGI (K-562 leukemia): 10.4 µM | GI50 (KM12 colon): 2450 nM | TGI (KM12 colon): 6.23 µM | GI50 (LOX IMVI melanoma): 1940 nM | TGI (LOX IMVI melanoma): 4.49 µM | GI50 (M14 melanoma): 3.34 µM | TGI (M14 melanoma): 23 µM | GI50 (MALME-3M melanoma): 2370 nM | TGI (MALME-3M melanoma): 8.23 µM | GI50 (MCF7 breast): 2770 nM | TGI (MCF7 breast): 9 µM | GI50 (MDA-MB-231 breast): 2810 nM | TGI (MDA-MB-231 breast): 9.58 µM | GI50 (MDA-MB-435): 2840 nM | TGI (MDA-MB-435): 11 µM | GI50 (MOLT-4 leukemia): 3.05 µM | TGI (MOLT-4 leukemia): 11.5 µM | GI50 (NCI-H226 lung): 12.2 µM | TGI (NCI-H226 lung): 98.2 µM | GI50 (NCI-H23 lung): 2340 nM | TGI (NCI-H23 lung): 7.13 µM | GI50 (NCI-H460 lung): 2530 nM | TGI (NCI-H460 lung): 6.25 µM | GI50 (NCI/ADR-RES ovarian): 17.3 µM | TGI (NCI/ADR-RES ovarian): > 100 µM | GI50 (OVCAR-3 ovarian): 2810 nM | TGI (OVCAR-3 ovarian): 8.86 µM | GI50 (OVCAR-4 ovarian): 3.16 µM | TGI (OVCAR-4 ovarian): 22.5 µM | GI50 (OVCAR-5 ovarian): 3.59 µM | TGI (OVCAR-5 ovarian): 17.4 µM | GI50 (OVCAR-8 ovarian): 5.62 µM | TGI (OVCAR-8 ovarian): > 100 µM | GI50 (PC-3 prostate): 2840 nM | TGI (PC-3 prostate): 10.8 µM | GI50 (RPMI-8226 leukemia): 2490 nM | TGI (RPMI-8226 leukemia): 6.81 µM | GI50 (RXF 393 renal): 2800 nM | TGI (RXF 393 renal): 9.44 µM | GI50 (SF-268 CNS): 3.42 µM | TGI (SF-268 CNS): 20.3 µM | GI50 (SF-295 CNS): 3.3 µM | TGI (SF-295 CNS): 16.2 µM | GI50 (SF-539 CNS): 3.08 µM | TGI (SF-539 CNS): 9.57 µM | GI50 (SK-MEL-2 melanoma): 2050 nM | TGI (SK-MEL-2 melanoma): 5.41 µM | GI50 (SK-MEL-28 melanoma): 3.25 µM | TGI (SK-MEL-28 melanoma): 15.9 µM | GI50 (SK-MEL-5 melanoma): 2420 nM | TGI (SK-MEL-5 melanoma): 5.91 µM | GI50 (SK-OV-3 ovarian): 3.9 µM | TGI (SK-OV-3 ovarian): 38.4 µM | GI50 (SN12C renal): 4.07 µM | TGI (SN12C renal): 17.4 µM | GI50 (SNB-19 CNS): 2390 nM | TGI (SNB-19 CNS): 16.7 µM | GI50 (SNB-75 CNS): 2030 nM | TGI (SNB-75 CNS): 9.21 µM | GI50 (SW-620 colon): 3.56 µM | TGI (SW-620 colon): 21.9 µM | GI50 (T-47D breast): 2890 nM | TGI (T-47D breast): 14.1 µM | GI50 (TK-10 renal): 8.12 µM | TGI (TK-10 renal): 59 µM | GI50 (U251 CNS): 3.26 µM | TGI (U251 CNS): > 100 µM | GI50 (UACC-257 melanoma): 2890 nM | TGI (UACC-257 melanoma): 9.64 µM | GI50 (UACC-62 melanoma): 2350 nM | TGI (UACC-62 melanoma): 7.91 µM | GI50 (UO-31 renal): 5.55 µM | TGI (UO-31 renal): > 100 µM
